Calls of active or inactive are those of the source. The calls are words filed in the database; no cut-off is given here.
Experiments:
[1] = target: Indoleamine 2,3-dioxygenase 1 (Homo sapiens, UniProt P14902); assay: Inhibition of IDO1 (unknown origin) assessed as reduction in kynurenine production using L-tryptophan as substrate incubated for 1 hr by absorbance based microplate reader analysis
[2] = target: Tryptophan 2,3-dioxygenase (Homo sapiens, UniProt P48775); assay: Inhibition of TDO (unknown origin) assessed as reduction in N-formylkynurenine formation using L-tryptophan as substrate at 50 uM incubated for 75 mins by UV absorbance based analysis relative to control
Chain of Tryptophan 2,3-dioxygenase (P48775 whole entry, looked up): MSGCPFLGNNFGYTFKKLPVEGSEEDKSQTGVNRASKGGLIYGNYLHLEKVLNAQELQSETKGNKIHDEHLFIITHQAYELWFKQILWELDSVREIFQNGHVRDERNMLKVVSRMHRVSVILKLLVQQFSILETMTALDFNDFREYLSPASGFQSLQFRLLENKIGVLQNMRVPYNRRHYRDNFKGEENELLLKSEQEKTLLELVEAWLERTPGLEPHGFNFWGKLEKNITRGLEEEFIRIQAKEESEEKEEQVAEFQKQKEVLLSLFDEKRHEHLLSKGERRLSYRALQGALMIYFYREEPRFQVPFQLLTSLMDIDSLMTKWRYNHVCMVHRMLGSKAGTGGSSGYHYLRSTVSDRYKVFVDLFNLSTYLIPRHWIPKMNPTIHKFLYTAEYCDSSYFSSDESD

BV-2 = assay: Antiinflammatory activity in LPS stimulated mouse BV-2 cells assessed as increase in IL-10 expression at 0.5 to 2 uM pretreated with compound for 1 hr followed by LPS stimulation and measured after 24 hrs by qRT-PCR analysis; type: functional, cell-based; conditions: dose 0.5-2 µM, time 25.0 hrs
[3] = Tmax in C57BL/6J mouse at 20 mg/kg, iv measured up to 24 hrs by LC-MS/MS analysis; type: ADME, organism-based; conditions: in vivo
[4] = Cmax in C57BL/6J mouse at 20 mg/kg, ip measured up to 24 hrs by LC-MS/MS analysis; type: ADME, organism-based; design: dose 20 mg/kg, time < 24 hrs, route ip; conditions: in vivo
[5] = MRT (0 to 24 hrs) in C57BL/6J mouse at 20 mg/kg, ip measured up to 24 hrs by LC-MS/MS analysis; type: ADME, organism-based; conditions: in vivo
[6] = MRT (0 to infinity) in C57BL/6J mouse at 20 mg/kg, iv measured up to 24 hrs by LC-MS/MS analysis; type: ADME, organism-based; conditions: in vivo
[7] = Volume of distribution at steady state in C57BL/6J mouse at 20 mg/kg, iv measured up to 24 hrs by LC-MS/MS analysis; type: ADME, organism-based; conditions: in vivo, read-out: Vdss
[8] = Acute toxicity in mouse assessed as pathological changes in liver at 10 to 20 mg/kg, ip administered once daily for 20 days by hematoxyin-eosin staining based analysis; type: organism-based; conditions: in vivo, 480 h, dose 10-20 mg/kg, time 20 day
Mus musculus [9] = assay: Antidepressant activity in LPS induced mouse model assessed as suppression of microglia activation in hippocampus at 20 mg/kg, ip pretreated with compound administered once daily for 2 days followed by LPS injection; type: functional, organism-based; conditions: time 2.0 day
Mus musculus [10] = assay: Antiinflammatory activity in LPS induced mouse assessed as reduction in iNOS expression in hippocampus at 20 mg/kg, ip pretreated with compound administered once daily for 2 days followed by LPS injection by qPCR analysis; type: functional, organism-based; conditions: time 2.0 day
Mus musculus [11] = assay: Downregulation of kynurenine level in brain of LPS induced mouse at 20 mg/kg, ip pretreated with compound administered once daily for 2 days followed by LPS injection by UHPLC-HRMS analysis; type: functional, organism-based; conditions: time 2.0 day

Chain of Indoleamine 2,3-dioxygenase 1 (P14902 whole entry): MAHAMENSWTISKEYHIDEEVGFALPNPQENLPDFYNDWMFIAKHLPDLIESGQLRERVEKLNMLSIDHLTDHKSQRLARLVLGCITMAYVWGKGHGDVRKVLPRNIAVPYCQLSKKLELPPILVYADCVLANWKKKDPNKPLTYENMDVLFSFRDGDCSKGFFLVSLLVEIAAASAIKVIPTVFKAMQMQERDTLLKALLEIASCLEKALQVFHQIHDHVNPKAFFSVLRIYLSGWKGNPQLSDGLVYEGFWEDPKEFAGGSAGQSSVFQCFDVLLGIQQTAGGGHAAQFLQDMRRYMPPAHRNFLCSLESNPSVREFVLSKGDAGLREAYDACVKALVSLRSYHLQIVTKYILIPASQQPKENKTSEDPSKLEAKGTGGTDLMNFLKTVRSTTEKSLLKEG

c1ccc2c(c1)[nH]c1c(-c3c[nH]cn3)nccc12
IC50 [1]: 3.53 µM
inhibition [2]: 92%
Activity (BV-2): Active
Tmax [3]: 0.25 h
Cmax [4]: 3880 ng/mL
MRT last at 24 h [5]: 1.03 h
MRT inf [6]: 1.85 h
Vd [7]: 4.35 L/kg
Activity [8]: Non-Toxic
Activity (Mus musculus [9]): Active
Activity (Mus musculus [10]): Active
Activity (Mus musculus [11]): Active
